PMC10254852, “Design, Synthesis and Anticancer Evaluation of Nitroimidazole Radiosensitisers” (Molecules, 2023)
Like-named read-outs stand apart in the source and are kept apart here.

Legend:
HCT116/54C cells [1] = assay: In vitro cytotoxicity, 4 h exposure oxic/anoxic, 5-day regrowth, sulforhodamine B; format: cell-based, human; conditions: HCT116/54C; for HCR: IC50(oxic)/IC50(anoxic); for IC50: Homo sapiens
From the text: (§1) This allowed derivation of hypoxia cytotoxicity ratios (HCR) as IC50(oxic)/IC50(anoxic) in an HCT116 subclone HCT116/54C and two HNSCC cell lines, FaDu and UT-SCC-74B (Table 2).
(§2) HCT116/54C is an HCT116 subline that originated from a mixed culture with UT-SCC-54C cells, which was supplied alongside UT-SCC-74B by Prof. Bradly Wouters (University Health Network, Toronto, ON, Canada). HCT116/54C and UT-SCC-74B cells were passaged in minimum essential media (MEM, ThermoFisher Scientific, Waltham, MA, USA) with 10% foetal calf serum (FCS, Moregate Biotech, Hamilton, New Zealand), 4.5 mg/mL D-glucose (Sigma-Aldrich, St. Louis, MO, USA) and 20 mM HEPES (Sigma-Aldrich). FaDu cells were sourced from American Type Culture Collection and cultured in αMEM (ThermoFisher Scientific) with 10% FCS. All cell lines were confirmed mycoplasma-free by PlasmoTest (InvivoGen, San Diego, CA, USA) and were derived from STR-authenticated cryopreserved stocks. Log-phase cells were seeded into 96-well plates at 800 cells/well for HCT116/54C and 1500 cells/well for FaDu. […] After drug washout, cells were grown and stained as for the oxic IC50 assays. The hypoxic cytotoxicity ratio HCR was determined as HCR = IC50(oxic)/IC50(anoxic).

UT-SCC-74B cells = assay: as above; format: cell-based, human; conditions: for IC50: Homo sapiens; for HCR: IC50(oxic)/IC50(anoxic)
From the text: as §1, §2

FaDu cells = assay: as above; format: cell-based; conditions: for IC50: Homo sapiens; for HCR: IC50(oxic)/IC50(anoxic)
From the text: as §1, §2

HCT116/54C cells [2] = assay: In vitro radiosensitisation under anoxia, clonogenic survival; format: cell-based, human; conditions: compound 1 mM, radiation dose for 1% survival/radiation dose for 1% survival with compound, mean ± SEM
Experimental: Next, we evaluated in vitro radiosensitisation by using a representative subset of nitroimidazole compounds in HCT116/54C cells with a clonogenic survival endpoint. Radiosensitisation was determined by treating cells under anoxia with a range of radiation doses alone and with compounds at equimolar doses (1 mM). Sensitiser enhancement ratios (SER) were calculated as the ratio of radiation dose required for 1% clonogenic survival alone or with compound (Table 3).
Cells were seeded onto 96-well plates at 10^5 cells per well and allowed to attach for 2 h. […] The plates were irradiated (Eldorado 78 ^60Co teletherapy unit, ~2 Gy/min) with 15 Gy under anoxia at room temperature for SR experiments. A metal wedge placed on the top of the metal chamber was used to achieve a graduated radiation dose across the plate, varying from 7 to 29 Gy, calibrated by Fricke dosimetry with ammonium thiocyanate as previously described for SER experiments. The control plate (compound alone, no radiation) was left inside the anaerobic chamber at room temperature during the irradiation period. After treatment, the cells were trypsinized and suspended in usual media + 1% penicillin-streptomycin (ThermoFisher Scientific), and 10-fold serial dilutions were plated for clonogenic survival. After 10 days, plates were stained with methylene blue (2 g/L in EtOH/H2O, 1:1 v/v) and colonies with more than 50 cells were counted. The surviving fraction (SF) was determined as: SF = PE(irradiated)/PE(control) where the plating efficiency (PE) = (No. of colonies)/(No. of cells plated). SF was plotted against radiation dose. Survival ratios (SR) were calculated: SR = (cell survival with radiation)/(cell survival with drug + radiation). Sensitizer enhancement ratios (SER) were calculated: SER = (radiation dose for 1% survival without compound)/(radiation dose for 1% survival with compound).

[3] = parameters: method as in PMID 29253343; conditions: NIH-III mice, 2.2 mmol/kg i.v., cited from earlier work; for Cmax: read-out: Plasma Cmax
HCT116/54C tumours = assay: Tumour radiosensitisation: ex vivo clonogenic assay; format: in vivo, NIH-III mice; conditions: for Sensitisation Ratio: 2.2 mmol/kg i.v. 5 min prior to 10 Gy radiation, surviving fraction after radiation/surviving fraction after drug + radiation; for enhancement of tumour killing of radiotherapy (RAD vs drug + RAD): 2.2 mmol/kg i.v. + 10 Gy, one-way ANOVA
Experimental: Specific pathogen-free six- to eight-week-old female NIH-III mice, bred in the Vernon Jansen Unit, University of Auckland, were used for animal experiments. Animals had ad libitum access to food and water and were maintained in microisolator cages on a 12 h light/dark cycle. All treatments were administered by i.v. injection at a dose of 2.2 mmol/kg and injection volume of 10 mL/kg. Compounds 2, 34 and 38 were administered as solutions in saline containing 1% DMSO or for 9–12 as solutions in saline containing 2 molar equivalents of NaHCO3. Control animals received an i.v. injection of saline at 10 mL/kg. All animal experiments were conducted under the auspices of the University of Auckland Animal Ethics Committee (approval 1781).
Compounds were evaluated for in vivo radiosensitisation of hypoxic cells in HCT116/54C and UT-SCC-74B human tumour xenografts using clonogenic survival as an endpoint, using previously report methods. Tumours were grown subcutaneously on the flanks of NIH-III mice by injecting 5 × 10^6 HCT116/54C cells or UT-SCC-74B cells. Once tumours reached a volume of approximately 250 mm^3, mice were randomly assigned to 4 treatment groups and treated with: (A) vehicle control, (B) 10 Gy RAD only, (C) sensitiser only, or (D) sensitiser given before 10 Gy RAD. Drugs were administered as a single i.v. dose at 2.2 mmol/kg. […] Tumours were excised 18 h after treatment, and tumour cells were dissociated enzymatically and plated to determine the number of surviving (clonogenic) cells per gram of tumour tissue. SF and SR were calculated as described above. Statistical significance of drug effects was tested using one-way ANOVA with Sidak tests for multiple comparisons vs. radiation alone (Table 5).

[4] = anoxic, 4 h exposure, mean ± SEM, n = 3–4, read-out: IC50 Anoxic
[5] = oxic, 4 h exposure, mean ± SEM, n = 3–4, read-out: IC50 Oxic

| SMILES | HCR (HCT116/54C cells [1]) | HCR (UT-SCC-74B cells) | HCR (FaDu cells) | SER at 1 mM (HCT116/54C cells [2]) | IC50 (HCT116/54C cells [1]; [4]) [mM] | IC50 (HCT116/54C cells [1]; [5]) [mM] | IC50 (FaDu cells; [4]) [mM] | IC50 (FaDu cells; [5]) [mM] | IC50 (UT-SCC-74B cells; [4]) [mM] | IC50 (UT-SCC-74B cells; [5]) [mM] | also measured |
| --- | --- | --- | --- | --- | --- | --- | --- | --- | --- | --- | --- |
| COCC(O)Cn1ccnc1[N+](=O)[O-] (stereo not drawn) [Compound 1, misonidazole, reference compound] | >16.8 | >11.9 | >15.4 | 1.46 ± 0.01 |  |  |  |  |  |  | IC50 (HCT116/54C cells [1]; 4 h, read-out: IC50 Anoxic): 1.5 ± 0.3 mM; IC50 (HCT116/54C cells [1]; 4 h, read-out: IC50 Oxic): > 25 mM; IC50 (HCT116/54C cells [1]; read-out: hypoxic IC50): 0.5 mM; IC50 (UT-SCC-74B cells; 4 h, read-out: IC50 Anoxic): 2.1 ± 0.6 mM; IC50 (UT-SCC-74B cells; 4 h, read-out: IC50 Oxic): > 25 mM; IC50 (FaDu cells; 4 h, read-out: IC50 Anoxic): 1.3 ± 0.2 mM; IC50 (FaDu cells; 4 h, read-out: IC50 Oxic): > 20 mM |
| O=[N+]([O-])c1cncn1CCN1CCOCC1 [Compound 3, nimorazole, reference compound] |  |  | >1.5 | 1.20 ± 0.01 | > 20 | > 25 | 13.2 ± 3.4 | > 20 |  |  |  |
| O=[N+]([O-])c1nccn1CCS(=O)(=O)NCCO [Compound 6] | >7.3 | >6.6 | 14.9 | 1.39 ± 0.01 | 2.2 ± 0.04 | > 16 | 1.2 ± 0.2 | 17.8 ± 2.2 | 3 ± 0.6 | > 20 |  |
| O=[N+]([O-])c1cncn1CCS(=O)(=O)NCCO [Compound 8] | >2.4 | >2.0 | >3.6 | 1.27 ± 0.00 | 9 ± 0.9 | > 22 | 6.6 ± 0.6 | > 24 | 10.9 ± 1.3 | > 22 |  |
| O=[N+]([O-])c1nccn1CCS(=O)(=O)NCCOP(=O)(O)O [Compound 10] |  |  |  |  |  |  |  |  |  |  | AUC [3]: 640 µM·h; T1/2 [3]: 2.21 h; Cmax [3]: 1140 µM; Sensitisation Ratio (HCT116/54C tumours): 1.78; enhancement of tumour killing of radiotherapy (RAD vs drug + RAD) (HCT116/54C tumours): not |
| O=[N+]([O-])c1cncn1CS(=O)(=O)NCCOP(=O)(O)O [Compound 11] |  |  |  |  |  |  |  |  |  |  | AUC [3]: 710 µM·h; T1/2 [3]: 1.72 h; Cmax [3]: 1100 µM; Sensitisation Ratio (HCT116/54C tumours): 1.85; enhancement of tumour killing of radiotherapy (RAD vs drug + RAD) (HCT116/54C tumours): not |
| O=[N+]([O-])c1cncn1CCS(=O)(=O)NCCOP(=O)(O)O [Compound 12] |  |  |  |  |  |  |  |  |  |  | Sensitisation Ratio (HCT116/54C tumours): 3.32; enhancement of tumour killing of radiotherapy (RAD vs drug + RAD) (HCT116/54C tumours): significantly enhanced the tumour killing of radiotherapy |
| COCCNS(=O)(=O)Cn1ccnc1[N+](=O)[O-] [Compound 33] | >51 | 19.9 | 46.6 |  | 0.12 ± 0.002 | > 6.2 | 0.09 ± 0.01 | 4 ± 1.2 | 0.19 ± 0.02 | 3.7 ± 0.8 |  |
| COCCNS(=O)(=O)CCn1ccnc1[N+](=O)[O-] [Compound 35] | >16 |  | 20.4 |  | 0.97 ± 0.16 | > 16 | 0.81 ± 0.12 | 16.5 ± 1.6 |  |  |  |
| O=[N+]([O-])c1nccn1CCS(=O)(=O)NCCN1CCOCC1 [Compound 36] | 12.9 | 7.6 | 10.6 | 1.57 ± 0.00 | 0.71 ± 0.13 | 9.2 ± 1.1 | 0.69 ± 0.04 | 7.3 ± 0.6 | 1.6 ± 0.3 | 11.9 ± 1.5 |  |
| COCCNS(=O)(=O)Cn1cncc1[N+](=O)[O-] [Compound 37] | 2.9 |  | 5.7 |  | 4 ± 0.7 | 11.4 ± 1 | 2.1 ± 0.04 | 12 ± 1.9 |  |  |  |
| COCCNS(=O)(=O)CCn1cncc1[N+](=O)[O-] [Compound 39] | >1.9 |  | >2.6 |  | 13 ± 1.3 | > 25 | 7.2 ± 0.2 | > 19 |  |  |  |
| COCCNS(=O)(=O)CCn1c([N+](=O)[O-])cnc1C [Compound 40] | >1.8 |  | >2.7 |  | 11 ± 0.4 | > 20 | 8 ± 0.5 | > 22 |  |  |  |
| Cc1ncc([N+](=O)[O-])n1CCS(=O)(=O)NCCO [Compound 41] | >1.1 | >1.5 |  | 1.16 ± 0.01 | 15.5 ± 2.6 | > 18 | > 22 | > 25 | 13.7 ± 3.7 | > 21 |  |
| Cc1ncc([N+](=O)[O-])n1CCS(=O)(=O)NCCN1CCOCC1 [Compound 42] | 1.8 | 1.4 | 1.3 | 1.16 ± 0.01 | 4.3 ± 0.2 | 7.6 ± 0.4 | 7.8 ± 0.2 | 9.8 ± 1.2 | 6.6 ± 0.6 | 8.9 ± 1.6 |  |
| Cc1ncc([N+](=O)[O-])n1CCS(=O)(=O)N1CCN(C)CC1 [Compound 43] | 1.2 |  | 1.6 |  | 9.9 ± 0.3 | 11.7 ± 1.3 | 8.6 ± 0.6 | 13.3 ± 2.5 |  |  |  |
| Cc1ncc([N+](=O)[O-])n1CCS(=O)(=O)NCCCN1CCOCC1 [Compound 44] | >2.0 | 1.9 | >2.0 |  | 10.3 ± 1.5 | > 21 | 7.8 ± 0.7 | > 16 | 7.1 ± 1.5 | 13.2 ± 2 |  |
| Cc1ncc([N+](=O)[O-])n1CCS(=O)(=O)NCCN1CCCCC1 [Compound 45] | 5.0 |  | 2.8 |  | 2.4 ± 0.4 | 11.8 ± 1.5 | 1.7 ± 0.4 | 4.8 ± 0.3 |  |  |  |
| Cc1ncc([N+](=O)[O-])n1CCS(=O)(=O)N1CCC(N(C)C)CC1 [Compound 46] | 8.6 | 4.4 | 7.3 |  | 2 ± 0.3 | 16.9 ± 1.4 | 1.3 ± 0.1 | 9.5 ± 2 | 1.9 ± 0.2 | 8.1 ± 0.9 |  |
